This is an account of results in patent US9617276B2, “Compounds and methods for treating AIDS and HIV infections” (priority 2009, dated 2017).

Molecules are shown by their SMILES. Values joined by “and” are separate entries in the source; they are usually repeats but may differ in a detail not shown here. Equal values may be shown once. Read-outs that look alike come from different tables or passages of the source.

Data set [1] concerns HIV-1LAI. The data set is described as follows: drug susceptibility, MT-2 cells, MTT assay, HIV-1LAI. Type of data set: cell-based. How it is done:
(§1) All assays were performed in duplicate or triplicate. […] All assays were performed in duplicate or triplicate.
(§2) Each selectivity index denotes a ratio of CC50 to EC50 against HIV-1LAI N.D., not done.
On the technique in general: Tetrazolium assays rely on reduction of a dye to a coloured formazan, in cell work by metabolically active cells.

For data set [2], the system named is HIV-2EHO. The experiment in a line: drug susceptibility, MT-2 cells, MTT assay, HIV-2EHO. Type of data set: cell-based. How it is done:
as §1, §2

Data set [3] has as its system HIV-2ROD. The data set is described as follows: drug susceptibility, MT-2 cells, MTT assay, HIV-2ROD. Type of data set: cell-based. How it is done: as §1, §2
Data set [4] in a line: cytotoxicity CC50. In kind it is cell-based, Human. The conditions noted are these: human.
Data set [5] relates to HIV-1NL4-3. The data set is described as follows: p24 Gag inhibition in MT-4 cells, HIV-1NL4-3. Type of data set: cell-based. How it is done:
as §1

Data set [6] relates to HIV-1MDR/MM. The data set is described as follows: microbe, parasite or virus in culture. Type of data set: cell-based. The conditions noted are these: for EC50: Human immunodeficiency virus 1, read-out: EC50 (μM), HIV-1MDR/MM (NSI); for n-fold change of EC50, HIV-1MDR/MM: compared to wild-type HIV-1ERS104pre. As for the experimental part:
(§3) The susceptibility of HIV-1LAI and primary HIV-1 isolates to various drugs were determined as described previously (Koh et al. 2003 Antimicrob Agents Chemother 47:3123-9). Briefly, MT-2 cells (2×10^4/ml) were exposed to 100 50% tissue culture infectious doses (TCID50S) of HIV-1LAI, in the presence or absence of various concentrations of drugs in 96-well microculture plates and were incubated at 37° C. for 7 days. After 100 μl of the medium was removed from each well, 3-(4,5-dimetylthiazol-2-yl)-2,5-diphenyltetrazolium bromide (MTT) solution (10 μl, 7.5 mg/ml in phosphate-buffered saline) was added to each well in the plate, followed by incubation at 37° C. for 3 h. […] All assays were performed in duplicate or triplicate. To determine the susceptibility of primary HIV-1 isolates to drugs, phytohemagglutinin-activated peripheral blood mononuclear cells (PHA-PBMCs; 106/ml) were exposed to 50 TCID50S of each. The target cells were exposed to HIV-1104pre or drug-resistant HIV-1 in the presence or absence of various concentrations of drugs and were incubated for 7 days. Upon the conclusion of the culture, the amounts of p24 Gag protein in the supernatants were determined using a fully automated chemiluminescent enzyme immunoassay system (Lumipulse F; Fujirebio Inc., Tokyo, Japan) (Maeda et al. 2001 J Biol Chem 276:35194-200). To determine the drug susceptibility of certain laboratory HIV-1 strains, MT-4 cells were used as target cells. In brief, MT-4 cells (10^5/ml) were exposed to 100 TCID50S of drug-resistant HIV-1 strains in the presence or absence of various concentrations of drugs and on day 7 of culture, the supernatant was harvested and the amounts of p24 Gag protein were determined. […] All assays were performed in duplicate or triplicate.
(§4) These clinical strains contained 9 to 14 amino acid substitutions in the protease-encoding region, which have reportedly been associated with HIV-1 resistance to various PIs.
(§5) Amino acid substitutions identified in the protease-encoding region compared to the consensus type B sequence cited from the Los Alamos database include L63P in HIV-1ERS104pre; L10I, K14R, L33I, M36I, M46I, F53I, K55R, I62V, L63P, A71V, G73S, V82A, L90M, and I93L in HIV-1MDR/B; L10I, I15V, K20R, L24I, M36I, M46L, I54V, I62V, L63P, K70Q, V82A, and L89M in HIV-1MDR/C; L10I, V11I, T12E, I15V, L19I, R41K, M46L, L63P, A71T, V82A, and L90M in HIV-1MDR/G; L10I, K14R, R41K, M46L, I54V, L63P, A71V, V82A, L90M, I93L in HIV-1MDR/TM; L10I, K43T, M46L, I54V, L63P, A71V, V82A, L90M, and Q92K in HIV-1MDR/MM; L10I, L24I, I33F, E35D, M36I, N37S, M46L, I54V, R57K, I62V, L63P, A71V, G73S, and V82A in HIV-1MDR/JSL. HIV-1ERS104pre served as a source of wild-type HIV-1. EC50s were determined by using PHA-PBMs as target cells, and inhibition of p24 Gag protein production by each drug was used as an end point. Numbers in parentheses represent n-fold changes of EC50s for each isolate compared to EC50s for wild-type HIV-1ERS104pre.

Data set [7] deals with HIV-1NL4-3. The experiment in a line: in vitro selection of PI-resistant HIV-1 variants in MT-4 cells. Type of data set: cell-based. The following applies: HIV-1NL4-3 in MT-4 cells, increasing drug concentrations. From the text:
The culture supernatants were harvested on day 7 and used to infect fresh MT-4 cells for the next round of culture in the presence of increasing concentrations of each drug.

Data set [8] relates to HIV-1ERS104pre (wild-type). The data set is described as follows: p24 Gag inhibition in PHA-PBMCs, HIV-1ERS104pre. The following applies: mean ± 1 SD. In kind it is cell-based. As for the experimental part:
as §3, §4, §5

The test system of data set [9] is HIV-1MDR/B. Type of data set: cell-based. The conditions noted are these: for EC50 (μM), HIV-1MDR/B (SI): PHA-PBMCs, p24 Gag; for n-fold change of EC50, HIV-1MDR/B: compared to wild-type HIV-1ERS104pre. How it is done: as §3, §4, §5
The subject of data set [10] is HIV-1MDR/C. Type of data set: cell-based. The following applies: for EC50 (μM), HIV-1MDR/C (SI): PHA-PBMCs, p24 Gag; for n-fold change of EC50, HIV-1MDR/C: compared to wild-type HIV-1ERS104pre. How it is done: as §3, §4, §5
The test system of data set [11] is HIV-1MDR/G. In kind it is cell-based. The conditions noted are these: for EC50 (μM), HIV-1MDR/G (SI): PHA-PBMCs, p24 Gag; for n-fold change of EC50, HIV-1MDR/G: compared to wild-type HIV-1ERS104pre. As for the experimental part:
as §3, §4, §5

In data set [12] the test system is HIV-1MDR/TM. In kind it is cell-based. The following applies: for EC50 (μM), HIV-1MDR/TM (SI): PHA-PBMCs, p24 Gag; for n-fold change of EC50, HIV-1MDR/TM: compared to wild-type HIV-1ERS104pre. How it is done:
as §3, §4, §5

In data set [13] the test system is HIV-1. The experiment in a line: antiviral assay (IC50). The conditions noted are these: read-out: IC50. Type of data set: cell-based. As for the experimental part: The inhibitory potencies of acyclic and cyclic inhibitors were measured by the assay protocol of Toth and Marshall (Toth, M. V.; Marshall, G. R. A simple, continuous fluorometric assay for HIV protease. Int. J. Pep. Protien Res. 1990, 36, 544-55).

Where [14] appears, read: Human immunodeficiency virus 1, MT4, read-out: EC50 (μM), HIV-1NL4-3, Table 7, mean ± 1 SD.
Setting [15] is: Human immunodeficiency virus 1, MT4, read-out: EC50 (μM), HIV-1NL4-3, Table 9, mean ± 1 SD.

On to `CC(C)CN(C[C@@H](O)[C@H](Cc1ccccc1)NC(=O)O[C@H]1CCOC1)S(=O)(=O)c1ccc(N)cc1` [APV, Amprenavir], for which the EC50 was 0.024 ± 0.008 µM in [1] (Human immunodeficiency virus 1, MT2, MT-2 cells, MTT assay, mean ± 1 SD, read-out: EC50 (μM) for HIV-1LAI); 0.12 ± 0.03 µM in data set [2] (Human immunodeficiency virus 2, MT2, MT-2 cells, MTT assay, mean ± 1 SD, read-out: EC50 (μM) for HIV-2EHO); 0.42 ± 0.1 µM in [3] (Human immunodeficiency virus 2, MT2, MT-2 cells, MTT assay, mean ± 1 SD, read-out: EC50 (μM) for HIV-2ROD); 0.034 ± 0.001 µM in [5] (Human immunodeficiency virus 1, MT4, Table 7, mean ± 1 SD, read-out: EC50 (μM), HIV-1NL4-3); 0.032 ± 0.001 µM in data set [5] (Human immunodeficiency virus 1, MT4, Table 9, mean ± 1 SD, read-out: EC50 (μM), HIV-1NL4-3); 0.21 ± 0.222 µM in data set [6]. In [4] (MT-2 cells, read-out: CC50), the cytotoxic concentration (CC50) was > 100000 nM. Besides, the “passage by which HIV-1 variants replicating in the presence of 1 μM drug emerged” value in data set [7] came to 20 passages.

As to `COC(=O)N[C@H](C(=O)N[C@@H](Cc1ccccc1)[C@@H](O)CN(Cc1ccc(-c2ccccn2)cc1)NC(=O)[C@@H](NC(=O)OC)C(C)(C)C)C(C)(C)C` [AZV, Atazanavir], in data set [5] (setting [14]), the EC50 is 0.004 ± 0.0004 µM. Also, the EC50 in data set [5] (setting [15]) came to 0.0032 ± 0.0001 µM. Also, the “EC50 (μM), HIV-1ERS104pre (wild-type SI)” value in [8] turned out to be 0.002 ± 0.001 µM. In [9], the “EC50 (μM), HIV-1MDR/B (SI)” value is 0.20 ± 0.10 µM and the “n-fold change of EC50, HIV-1MDR/B” value is listed as “(100)”. Further, in [10], the “EC50 (μM), HIV-1MDR/C (SI)” value was determined as 0.065 ± 0.008 µM and the “n-fold change of EC50, HIV-1MDR/C” value is “(33)”. Besides, in data set [11], the “EC50 (μM), HIV-1MDR/G (SI)” value stood at 0.033 ± 0.024 µM and the “n-fold change of EC50, HIV-1MDR/G” value is reported as “(17)”. In data set [12], the “EC50 (μM), HIV-1MDR/TM (SI)” value turned out to be 0.065 ± 0.008 µM and the “n-fold change of EC50, HIV-1MDR/TM” value is “(33)”. In data set [6], the EC50 is 0.18 ± 0.021 µM and the “n-fold change of EC50, HIV-1MDR/MM” value is given as “(39)”.

Regarding `COc1ccc2c(c1)OCCCC=CCCCCN(CC(O)C(Cc1ccccc1)NC(=O)OC1COC3OCCC13)S2(=O)=O` (stereo not drawn) [Compound 14b], the IC50 in data set [13] (Human immunodeficiency virus 1, Table 2) is < 10 nM; in data set [13] (Human immunodeficiency virus 1) it was < 49 nM. Further, the EC50 in data set [1] (Human immunodeficiency virus 1, MT2, read-out: EC50 (μM) for HIV-1LAI) came to 0.004 ± 0.001 µM; in data set [2] (Human immunodeficiency virus 2, MT2, read-out: EC50 (μM) for HIV-2EHO) it was 0.018 ± 0.013 µM; in [3] (Human immunodeficiency virus 2, MT2, read-out: EC50 (μM) for HIV-2ROD), 0.025 ± 0.002 µM; in data set [5] (setting [14]), 0.009 ± 0.0006 µM; in data set [5] (setting [15]), 0.006 ± 0.005 µM; in data set [6], 0.055 ± 0.025 µM. Moreover, in [1] (ratio of CC50 to EC50 against HIV-1LAI), the “Selectivity Index” value is 8,280. In data set [4], this compound came in with a CC50 of 33100 ± 2500 nM. Moreover, the “EC50 (μM), HIV-1ERS104pre (wild-type SI)” value in data set [8] (listed as GRL-286) is 0.007 µM and 0.007 ± 0.002 µM. Besides, the “EC50 (μM), HIV-1MDR/B (SI)” value in data set [9] was determined as 0.089 ± 0.016 µM. In addition, the “n-fold change of EC50, HIV-1MDR/B” value in [9] was “(13)”. The “EC50 (μM), HIV-1MDR/C (SI)” value in data set [10] was determined as 0.029 ± 0.001 µM. The “n-fold change of EC50, HIV-1MDR/C” value in [10] is “(4)”. In addition, the “EC50 (μM), HIV-1MDR/G (SI)” value in data set [11] is 0.028 ± 0.004 µM. Also, in data set [11], the “n-fold change of EC50, HIV-1MDR/G” value is “(4)”. The “EC50 (μM), HIV-1MDR/TM (SI)” value in [12] came to 0.072 ± 0.014 µM. The “n-fold change of EC50, HIV-1MDR/TM” value in data set [12] is listed as “(10)”. Further, in data set [6], the “n-fold change of EC50, HIV-1MDR/MM” value is “(8)”. Also, the “passage by which HIV-1 variants replicating in the presence of 1 μM drug emerged” value in data set [7] amounted to 37 passages.

Broadly, the CC50 is the concentration that lowers cell viability or growth by half. Broadly, the IC50 is the concentration that inhibits the measured activity by half.
